Measurements reported in PubChem BioAssay (NCI).
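Compound exposure: 48 hours, 5 concentrations, 96-well plates. The concentration for 50% growth inhibition is given as GI50. TGI is the concentration that stops growth completely.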

Columns and labels:
Experiment in all cases: NCI-60 cell line screen, 48 h
HT29 colon = system: HT29 colon
SN12C renal = system: SN12C renal
UACC-257 melanoma = system: UACC-257 melanoma
OVCAR-8 ovarian = system: OVCAR-8 ovarian
LOX IMVI melanoma = system: LOX IMVI melanoma
U251 CNS = system: U251 CNS
T-47D breast = system: T-47D breast
ACHN renal = system: ACHN renal
HCT-116 colon = system: HCT-116 colon
MDA-MB-231 breast = system: MDA-MB-231 breast

SMILES	GI50 (HT29 colon) [µM]	TGI (HT29 colon) [µM]	GI50 (SN12C renal) [µM]	TGI (SN12C renal) [µM]	GI50 (UACC-257 melanoma) [µM]	TGI (UACC-257 melanoma) [µM]	GI50 (OVCAR-8 ovarian) [µM]	TGI (OVCAR-8 ovarian) [µM]	GI50 (LOX IMVI melanoma) [µM]	TGI (LOX IMVI melanoma) [µM]	GI50 (U251 CNS) [µM]	TGI (U251 CNS) [µM]	TGI (T-47D breast) [µM]	GI50 (ACHN renal) [µM]	TGI (ACHN renal) [µM]	GI50 (HCT-116 colon) [µM]	TGI (HCT-116 colon) [µM]	GI50 (MDA-MB-231 breast) [µM]	TGI (MDA-MB-231 breast) [µM]	GI50 (T-47D breast) [µM]
COc1ccc2c(c1)c(CC(=O)[Se]C)c(C)n2C(=O)c1ccc(Cl)cc1	> 0.223	> 1	> 0.49	> 1	> 0.352	> 0.689	> 0.346	> 0.733	> 0.203	> 0.528	> 0.326	> 0.573	> 1	> 0.56	> 1	> 0.204	> 0.543	> 0.383	> 0.637	
CC1=NN(C(=O)c2ccccc2O)C(=O)/C1=C/c1ccc(O)cc1		> 100		> 78.7		> 100		> 100		> 82.1		> 100	> 100		> 100		> 100		> 100	
NCCCC[C@@H]1NC(=O)[C@H]2CCCN2C(=O)[C@H](Cc2ccccc2)CNC(=O)[C@H](Cc2ccccc2)NC1=O	> 37.5	> 37.5	> 37.5	> 37.5	> 37.5	> 37.5	> 37.5	> 37.5	> 37.5	> 37.5	> 37.5	> 37.5	> 37.5	> 37.5	> 37.5	> 37.5	> 37.5	> 37.5	> 37.5	> 37.5
COc1cc(OC)c(C/C=C/c2ccccc2)cc1O		31.5		32.7		55.6		32.8		29.4		30.4	23.7		72.3		30		31.7	
N#C/C(=C\c1ccsc1)c1nc2ccccc2o1	> 100	> 100	> 100	> 100	> 100	> 100	> 100	> 100	> 100	> 100	37.2	> 100	> 100	45.2	> 100	35.7	> 100	22.4	> 100	44.7
CC1=C(c2cccc(O)c2)[C@H](c2ccc(OCCN3CC(CF)C3)cc2)Oc2ccc(O)cc21	3.52	12.8	7.42	21.3	4.98	18.2	12.9	32.6	2.23	5.16	4.19	18.1	19.9	6.2	18.6	4.46	17.5	4.87	17.4	0.0747
Cc1c(Cl)cccc1C(=O)Nc1nc2c(s1)CN(C(=O)c1ccc(C(F)(F)F)cc1)CC2	0.0753	9.2	0.284	> 50	2.36	23.9	0.241	> 35.3	0.163	> 23.1	0.145	> 35.6	28.8	0.267	> 40.9	0.101	> 18.4	0.344	> 50	0.199
C[C@@H]1[C@H](C)N1CC(O)Cn1ccnc1[N+](=O)[O-] (some centres undefined)		> 100		> 100		> 100		> 100		> 100		> 100	> 100		> 100		> 100		> 100	
COc1cc2c(cc1OC)[C@H](C)N1CCc3cc(OC)c(OC)cc3[C@@H]1C2		> 100		> 100		> 100		> 100		> 100		> 100	> 100		> 100		> 100		> 100	
Cc1cc(NCCCN(C)C)c2ccc3c(ccc4c(NCCCN(C)C)cc(C)nc43)c2n1	0.149	0.503	0.157	0.553	0.199	0.499	0.114	0.295	0.176	0.401	0.199	0.541	2.54	0.238	0.744	0.17	0.439	0.175	0.468	0.521
O=C1NC(Nc2ccccc2)=NC(C(F)(F)F)(C(F)(F)F)N1		> 100		> 100		> 100		> 100		> 100		87.9	> 100		> 100		> 100		> 100	
COc1ccc(CCN2CC=Cn3c2nc2ccccc2c3=O)cc1	0.0319	27.4	0.116	> 61.1	20.5	> 100	0.054	> 41	0.0585	> 40.1	0.0368	> 100	> 100	0.0919	> 49.2	0.0347	> 100	0.0558	> 100	16
CC(C)(C)C(=O)OCC1C(=O)OCC1C(=O)N1Cc2cc3ccccc3nc2C1 (centres undefined)		14.2		16.8		13.4		14.8		15.3		20.6	7.63		7.54		5.28		14.4	
O=C1CCCCCCCCCCC1CN1CCCC1 (centres undefined)		77.1		> 100		49.3		> 100		70.7		> 100	> 100		> 100		> 100		> 100	
C=C1C(O)C2C(=C(CC)C13CC3)C(=O)C(C)(C)C2OC (centres undefined)	> 100	> 100	74.2	> 100	35.6	> 100	53.1	> 100	43.1	> 100	48.4	> 100	> 100	67.8	> 100	28.3	> 100	87.5	> 100	> 100
CC(C)CCCC(C)[C@H]1CCC2[C@@H]3CCC4Cc5nc6c(nc5C[C@]4(C)C3CC[C@@]21C)CC1CC[C@@H]2C(CC[C@@]3(C)C2CC[C@@H]3C(C)CCCC(C)C)[C@@]1(C)C6 (some centres undefined)		> 100		> 100		> 100		> 100		> 100		> 100	> 100		> 100		> 100		> 100	
CC(=O)N1CC(C)(C)c2c(C)c(O)c(C)c(C)c21		> 100		> 100		> 100		> 100		> 100		> 100	> 100		> 100		> 100		> 100	
